Reference: patent US5089516A, “1-phenyl-3,5-pyrazolidinedione hydroxystyrene compounds which have tyrosine kinase inhibiting activity” (Kanegafuchi Kagaku Kogyo Kabushiki Kaisha, priority 1987, dated 1992)
≈ marks a conversion by molar mass, not a printed value.

Columns and labels:
[1] = biological target: T1, epidermal growth factor receptor-tyrosine kinase complex (Homo sapiens, UniProt P00533); assay: Tyrosine kinase inhibiting activity (A-431 membrane preparation, EGF-stimulated); format: biochemical; conditions: read-out: Tyrosine kinase inhibition rate; for inhibition at 1 µM: 1 μM in the reaction mixture; for inhibition at 10 µM: 10 μM in the reaction mixture
T1 construct: The membrane preparation was employed in the following measurement without solubilization; endogenous in cells; host or cells: A-431 (ATCC CRL1555), membrane preparation, not solubilized
T1 sequence (P00533 25-1210, one chain of several): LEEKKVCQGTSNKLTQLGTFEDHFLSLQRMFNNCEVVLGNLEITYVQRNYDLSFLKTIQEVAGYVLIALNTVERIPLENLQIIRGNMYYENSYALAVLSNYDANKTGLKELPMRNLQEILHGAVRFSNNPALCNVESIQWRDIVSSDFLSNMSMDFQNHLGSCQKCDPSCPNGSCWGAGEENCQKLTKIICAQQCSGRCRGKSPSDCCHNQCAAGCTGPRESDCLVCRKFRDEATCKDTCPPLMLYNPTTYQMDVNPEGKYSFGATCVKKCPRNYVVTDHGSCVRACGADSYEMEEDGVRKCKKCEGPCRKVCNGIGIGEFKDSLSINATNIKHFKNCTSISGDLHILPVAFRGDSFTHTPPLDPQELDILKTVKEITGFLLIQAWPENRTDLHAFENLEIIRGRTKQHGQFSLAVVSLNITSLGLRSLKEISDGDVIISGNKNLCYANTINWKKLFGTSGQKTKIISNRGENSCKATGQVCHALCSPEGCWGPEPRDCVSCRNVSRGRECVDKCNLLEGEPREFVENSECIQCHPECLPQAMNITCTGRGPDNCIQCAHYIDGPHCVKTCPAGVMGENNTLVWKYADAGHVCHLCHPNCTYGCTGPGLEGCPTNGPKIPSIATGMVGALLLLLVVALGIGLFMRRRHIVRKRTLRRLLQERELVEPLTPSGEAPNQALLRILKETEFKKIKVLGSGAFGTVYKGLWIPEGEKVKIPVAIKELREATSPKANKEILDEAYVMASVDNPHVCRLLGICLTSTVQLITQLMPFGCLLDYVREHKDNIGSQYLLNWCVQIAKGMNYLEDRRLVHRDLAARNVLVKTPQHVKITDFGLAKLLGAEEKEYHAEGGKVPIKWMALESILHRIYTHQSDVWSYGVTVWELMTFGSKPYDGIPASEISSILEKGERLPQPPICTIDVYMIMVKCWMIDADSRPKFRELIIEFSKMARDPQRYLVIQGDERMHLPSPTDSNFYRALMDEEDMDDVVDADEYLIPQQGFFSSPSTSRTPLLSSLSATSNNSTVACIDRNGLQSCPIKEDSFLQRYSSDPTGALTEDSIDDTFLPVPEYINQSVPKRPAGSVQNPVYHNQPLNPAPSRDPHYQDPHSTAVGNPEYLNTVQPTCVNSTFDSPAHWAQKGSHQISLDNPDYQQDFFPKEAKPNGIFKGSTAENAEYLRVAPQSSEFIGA
Method: Tyrosine kinase inhibiting activity of the compound of the present invention was measured referring to a method for measuring tyrosine kinase activity by G. Carpenter or by S. Cohen et al. [J. Biol. Chem., 254, 4884(1979); J. Biol. Chem., 257, 1528(1982)].
Cell line A-431 derived from human carcinoma (ATCC CRL1555) was cultured at 37° C. under the condition of 5% CO2 in Dulbecco's modified Eagle's medium (made by NISSUE PHARMACEUTICAL CO., LTD.) containing 10% by volume fetal bovine serum, 50 μg/ml of streptomycin, 50 IU/ml of penicillin G and 50 μg/ml of kanamycin. […] The membrane preparation was employed in the following measurement without solubilization.
A test compound dissolved in dimethylsulfoxide (hereinafter referred to as "DMSO") was added to a mixture of 20 mM of N-2-hydroxyethylpiperazine-N'-2-ethanesulfonic acid buffer (pH 7.4), 1 mM of MnCl2, 7.5 μg of bovine serium albumin and the membrane preparation (10 μg as protein). After incubation at 0° C. for 5 minutes, 100 ng of epidermal growth factor (hereinafter referred to as "EGF") was added thereto and the mixture was further incubated at 0° C. for 15 minutes. [γ-^32 P]ATP (3000 Ci/mmol, 0.1 μCi) was added thereto to make final volume of 70 μl. After incubation at 0° C. for 15 minutes, 50 μl of the reaction mixture was soaked into Whatman 3 MM filter paper (made by Whatman Ltd.) and immediately the reaction was stopped by an aqueous solution of 10% by weight trichloroacetic acid containing 10 mM sodium pyrophosphate. The filter paper was sufficiently washed with the same solution and then washed with ethanol, and dried. Radioactivity present in the filter paper was measured by liquid scintillation counter (A). Also, radioactivity was measured in case of the reaction without EGF (B), the reaction without the test compound (C), and the reaction without both EGF and the test compound (D) as a control.
Tyrosine kinase inhibition rate (%) was calculated by the following equation. [formula]

[2] = biological target: T2, reverse transcriptase derived from Moloney-Murine Leukemia Virus (M-MLV) (Moloney murine leukemia virus, UniProt P03355); assay: Inhibiting activity against reverse transcriptase derived from M-MLV; format: biochemical; conditions: read-out: Inhibition rate (reverse transcriptase derived from M-MLV); for inhibition at 10 µM: 10 μM in the reaction mixture
T2 construct: reverse transcriptase derived from Moloney-Murine Leukemia Virus; purchased Pharmacia K. K
Method: There was found the following point by using reverse transcriptase derived from Moloney-Murine Leukemia Virus (hereinafter referred to as "M-MLV").
The compound of the present invention was dissolved in DMSO to give a 100 mM solution thereof. Then, the solution was diluted with distilled water containing DMSO to give a solution of the test compound having a defined concentration. A mixed ratio of DMSO and distilled water was adjusted so that the concentration of DMSO at this time is 10% by volume and a final concentration of DMSO at the beginning of a reaction is 1% by volume.
The thus prepared solution of the test compound was mixed with a solution containing 50 mM of Tris--HCl buffer (pH 8.3), 8 mM of MgCl2, 30 mM of NaCl, 50 mM of dithiothreitol (made by Wako Pure Chemical Industries Ltd.), 0.2 mM of thymidine-5'-triphosphate (made by Pharmacia K. K.) and 6 U/ml of reverse transciptase derived from M-MLV (made by Pharmacia K. K.), and preincubated at 37° C. for 30 minutes. After there was added thereto 10 μg/ml of polyadenylic acid (made by PL Biochemicals Co., Ltd.), 0.01 U/ml of oligodeoxy thymidylic acid (made by Pharmacia K. K.) and 10 μCi/ml of [methyl-^3 H] thymidine-5'-triphosphate (made by Amersham Japan Co., Ltd., 47 Ci/mmol) to give a reaction mixture, the mixture was further incubated at 37° C. for 30 minutes, followed by cooling with ice to stop the reaction.
The radioactivity incorporated into deoxyribonucleic acids was measured according to the method of Linteril et al (Science 170, 447 to 449 (1967)). A defined volume of the reaction mixture was soaked into DE-81 filter paper (made by Whatman Ltd.), the filter paper was washed with 5% by weight of Na2 HPO4 solution for three times, and with distilled water and ethanol successively, and then dried. Radioactivity contained in the filter paper was measured by liquid scintillation counter to give the each radioactivity of the test solution groups.
On the other hand, the same procedure as above was carried out using DMSO-distilled water without the test compound instead of using the test solution, to give the value of radioactivity of a control group.
Reverse transcriptase derived from M-MLV inhibition rate (%) was calculated by the following equation. [formula]

[3] = test system: antigen-induced airway constriction; assay: Inhibitory activity against antigen-induced airway constriction in actively sensitized guinea pigs; format: in vivo; conditions: Cavia porcellus, iv, 3 minutes before antigen inhalation, read-out: Inhibition rate (airway constriction)
Method: (3) Inhibitory activity against antigen-induced airway constriction in actively sensitized guinea pigs
That is, the sensitized guinea pigs (5 guinea pigs/group) were provided with artificial respiration by inserting a tracheal cannula under urethane anesthesia (1.5 g/kg body weight, intraperitoneal administration), and then, gallamine at 1 mg/kg body weight was injected intravenously to stop spontaneous respiration of the guinea pigs. Inhalation of 0.5% aqueous solution of ovalbumin was conducted using a nebulizer for 1 minute to increase antigen-induced airway constriction, at the same time, airway pressure was recorded through a transducer. Test compound was administered into jugular vein (i.v.) of the guinea pig 3 minutes before the antigen inhalation or administered orally (p.o.) 2 hours before the antigen inhalation. As a positive control compound, theophylline which was a drug for anti-asthma was used. The effect of the compound was estimated by calculating the maximum value of airway constriction (%) in comparison with the control group, according to the following equation. [formula]

5-lipoxygenase = biological target: T3, 5-lipoxygenase (Cavia porcellus, UniProt A0A286X958); assay: 5-Lipoxygenase inhibiting activity (5-HETE formation, cytosol of peritoneal exudate cells); format: biochemical, Hartley guinea pigs; conditions: read-out: Inhibition rate (5-lipoxygenase); for inhibition at 1 µM: 1 μM in the reaction mixture; for inhibition at 10 µM: 10 μM in the reaction mixture
T3 construct: The cytosol fraction was used as an enzyme solution; from tissue; host or cells: peritoneal exudate cells of casein-injected Hartley guinea pigs, 105,000×g cytosol
T3 sequence (A0A286X958 1-674): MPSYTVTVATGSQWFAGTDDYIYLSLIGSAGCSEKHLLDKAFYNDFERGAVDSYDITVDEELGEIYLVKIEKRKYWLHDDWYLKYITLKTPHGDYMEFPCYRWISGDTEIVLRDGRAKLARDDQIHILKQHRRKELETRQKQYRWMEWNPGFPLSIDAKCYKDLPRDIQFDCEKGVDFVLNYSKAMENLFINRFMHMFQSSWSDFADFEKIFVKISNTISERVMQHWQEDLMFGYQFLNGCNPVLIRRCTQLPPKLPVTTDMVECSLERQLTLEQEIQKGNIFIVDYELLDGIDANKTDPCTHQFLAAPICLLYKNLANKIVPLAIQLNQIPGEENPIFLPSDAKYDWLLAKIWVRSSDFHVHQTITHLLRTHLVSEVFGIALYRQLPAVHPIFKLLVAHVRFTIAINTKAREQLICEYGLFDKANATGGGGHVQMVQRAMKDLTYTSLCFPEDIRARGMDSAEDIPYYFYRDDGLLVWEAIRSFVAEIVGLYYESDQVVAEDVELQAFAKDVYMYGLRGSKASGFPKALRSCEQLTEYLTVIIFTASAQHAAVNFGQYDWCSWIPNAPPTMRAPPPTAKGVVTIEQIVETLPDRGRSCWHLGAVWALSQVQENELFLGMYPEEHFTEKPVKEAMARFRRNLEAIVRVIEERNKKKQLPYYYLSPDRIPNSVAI
Method: 5-Lipoxygenase inhibiting activity of the compound of the present invention was measured referring to the method for measuring 5-lipoxygenase activity by K. Ochi et al. [Journal of Biological Chemistry (J. Biol. Chem.), 258, 5754(1983)].
Sterilized 2% solution of casein (pH 7) was injected intraperitoneally into Hartley guinea pigs in a volume of 5 ml/100 g body weight. Fifteen hours later, the guinea pigs were killed and peritoneal exudate cells thereof were collected. After the exudate cells were washed with 17 mM Tris--HCl buffer (pH 7.4) containing 0.74% ammonium to remove contaminating erythrocytes in the exudate cells suspension, the cells were washed with buffer A (130 mM NaCl, 1 mM EDTA, 25 mM sodium phosphate, pH 7.4). The washed cells were suspended in buffer B (50 mM sodium phosphate, 1 mM EDTA, 0.1% gelatin, pH 7.4) at 10^8 cells/ml, sonicated and centrifuged at 10,000×g for 20 minutes under the cold atmosphere. The obtained supernatant was further centrifuged at 105,000×g for 60 minutes under the cold atmosphere. The cytosol fraction was used as an enzyme solution.
The enzyme solution was preincubated with the […] in the presence of 1 mM CaCl2, 1 mM reduced gluthathione (GSH) and 2 mM ATP at 30° C. for 5 minutes in 0.2 ml of a reaction mixture and the mixture was further incubated at 30° C. for 5 minutes by adding 20 μM [1-^14 C] arachidonic acid (0.1 μCi) thereto. The test compounds were dissolved in ethanol to give the reaction mixture containing 2% ethanol as a final concentration. Only ethanol was added to the reaction mixture as a control group.
To the reaction mixture were added 2.5 ml of a mixture of chloroform and methanol (2/1 by volume) and 0.3 ml of 40 mM citric acid to stop the reaction. The mixture was vortexed and an organic solvent layer was evaporated to dryness under nitrogen gas. After dissolving the dried organic layer in a fixed amount of the mixture of chloroform and methanol (2/1 by volume), it was spotted on a silica gel plate (Kiesel gel 60F254, E. Merck) and products were separated using a developer (the organic solvent layer of ethyl acetate/water/2,2,4-trimethylpentane/acetic acid=11/10/5/2 by volume). After the radioactive position of the product was determined by means of a radioautography, an area equivalent to that of 5-hydroxyeicosatetraenoic acid (hereinafter referred to as "5-HETE") was scraped off, and then its radioactivity was measured with a liquid scintillation counter. With regarding the amount of the generated 5-HETE as the 5-lipoxygenase inhibiting activity, the inhibition rate (%) in comparison with the control group was calculated according to the following equation. [formula]

[4] = test system: Nycobacterium smegmatis ATCC 607; assay: Antibacterial activity (MIC) against acid-fast bacteria; format: cell-based; conditions: 37° C., 40 to 42 hours
Method: As for acid-fast bacteria, after cultured in glycerol broth medium, there was prepared a bacterial suspension for inoculation containing about 10^6 of the bacteria per 1 ml of the medium. On the other hand, there were prepared some glycerol Czapek agar plating media with adding the test compounds, and thereto the bacterial suspension for inoculation was streaked.

| inhibition at 1 µM [1] [%] | inhibition at 1 µM (5-lipoxygenase) [%] | SMILES | also measured |
| --- | --- | --- | --- |
| 84 | – | COc1cc(C=C(C#N)C(N)=O)cc(Cc2ccccc2)c1O [Compound 22] | inhibition at 10 µM (5-lipoxygenase): 63% |
| – | 23 | O=C1N=C(NCc2ccccc2)SC1=Cc1cc(-c2ccccc2)c(O)c(-c2ccccc2)c1 [Compound 25] | inhibition at 10 µM [1]: 72% |
| 66 | – | CCOc1cc(C=C2SC(NCc3ccccc3)=NC2=O)cc(CSc2ccccc2)c1O [Compound 28] | MIC [4]: ≤ 15 µg/mL |
| 63 | 86 | CCCCOc1cc(C=C2SC(NCc3ccccc3)=NC2=O)cc(CSc2ccccc2)c1O [Compound 29] | – |
| 70 | 87 | CCCCOc1cc(C=C2SC(NCc3ccccc3)=NC2=O)cc(Cc2ccccc2)c1O [Compound 30] | MIC [4]: ≤ 6 µg/mL |
| – | 53 | CC(C)c1cc(C=C2SC(NCc3ccco3)=NC2=O)cc(C(C)C)c1O [Compound 43] | inhibition in vivo at 5 mg/kg ([3]; 5 mg/kg): 21%; inhibition at 10 µM [1]: 95% |
| 80 | – | CC(C)c1cc(C=C2SC(NCc3cccs3)=NC2=O)cc(C(C)C)c1O [Compound 44] | MIC [4]: ≤ 6 µg/mL |
| – | 36 | CC(C)c1cc(C=C2SC(NCc3ccccn3)=NC2=O)cc(C(C)C)c1O [Compound 45] | MIC [4]: 2 µg/mL (≈ 5.06 µM); inhibition in vivo at 1 mg/kg [3]: 42%; inhibition at 10 µM [1]: 90% |

More lines, now with the values behind:

| SMILES | inhibition at 1 µM [1] [%] | inhibition at 1 µM (5-lipoxygenase) [%] | also measured |
| --- | --- | --- | --- |
| O=C1Nc2ccccc2C1=Cc1cc(-c2ccccc2)c(O)c(-c2ccccc2)c1 [Compound 3] | 45 | – | – |
| O=C1Nc2ccccc2S(=O)(=O)C1=Cc1cc(Cc2ccccc2)c(O)c(Cc2ccccc2)c1 [Compound 5] | 42 | – | inhibition at 10 µM [2]: 87% |
| CCOc1cc(C=C2SC(=S)NC2=O)cc(CSc2ccccc2)c1O [Compound 6] | – | – | inhibition at 10 µM [2]: 98% |
| O=C1Nc2ccccc2C1=Cc1cc(CSc2ccccc2)c(O)c(OCc2ccccc2)c1 [Compound 12] | – | 84 | inhibition in vivo at 1 mg/kg [3]: 32%; inhibition at 10 µM [1]: 30% |
| COc1cc(C=C2C(=O)Nc3ccccc32)cc(Cc2ccccc2)c1O [Compound 13] | – | 86 | – |
| CCCCOc1cc(C=C2C(=O)Nc3ccccc32)cc(Cc2ccccc2)c1O [Compound 14] | 43 | 27 | – |
| O=C1OCCC1=Cc1cc(Cc2ccccc2)c(O)c(Cc2ccccc2)c1 [Compound 17] | 25 | – | – |
| CCOc1cc(C=C(C#N)C(N)=O)cc(Cc2ccccc2)c1O [Compound 21] | 98 | – | – |
| O=C1N=C(NCc2ccco2)SC1=Cc1cc(O)c(O)c(CSc2ccccc2)c1 [Compound 27] | 58 | – | inhibition at 1 µM ([2]; 1 μM in the reaction mixture): 73% |
| CC(C)c1cc(C=C2SC(NCc3ccc([N+](=O)[O-])cc3)=NC2=O)cc(C(C)C)c1O [Compound 40] | – | – | inhibition at 10 µM [1]: 21%; inhibition at 10 µM (5-lipoxygenase): 87% |
